Assay [1] deals with HEK293. Put plainly: SAR analysis of compounds that are cytotoxic to HEK293 - Set 2. [Related pubchem assays (depositor defined):AID1575, AID1578, AID1849, AID2001, AID2333, AID2334, AID2335, AID2337, AID2800]. The format is functional, cell-based. To be noted: Homo sapiens.
Assay [2] has as its system HEK293. Put plainly: cells. The conditions noted are these: Homo sapiens.
Assay [3] concerns HEK293. Put plainly: SAR analysis of compounds that are cytotoxic to HEK293 - Set 3. [Related pubchem assays (depositor defined):AID1575, AID1578, AID1848, AID1849, AID2001, AID2333, AID2334, AID2335, AID2337, AID2469]. The format is functional, cell-based. The conditions noted are these: Homo sapiens.
In assay [4] the target is T1, Tumor necrosis factor (Homo sapiens, UniProt P01375). Nature of the assay: TNFa-triggered NF-kB activation inhibitors, SAR follow-up, cell-based, set 3 (AID 2801). The format is functional.
Assay [5] relates to HEK293. Nature of the assay: cells. The assay is classed as functional, cell-based. To be noted: Homo sapiens.
Assay [6] concerns the target T1, Tumor necrosis factor. Nature of the assay: TNFa-triggered NF-kB activation inhibitors, SAR follow-up, cell-based, revised (AID 2337). The assay is classed as functional.
The subject of assay [7] is HEK293. Put plainly: NOD2 signaling inhibitors in MDP-stimulated cells, cell-based, uHTS, luminescence (AID 2001). The format is functional. To be noted: Homo sapiens.
Assay [8] relates to HEK293. Nature of the assay: cells. The assay is classed as functional, cell-based. To be noted: Homo sapiens. The source holds these as a separate data set.
For assay [9], the target named is T2, Nucleotide-binding oligomerization domain-containing protein 2 (Homo sapiens, UniProt Q9HC29). Put plainly: PubChem AID 2334. The assay is classed as functional.
Assay [10] concerns the target T2, Nucleotide-binding oligomerization domain-containing protein 2. Put plainly: NOD2 inhibitors, SAR follow-up, set 2 (AID 2475). The format is functional.
The target is the same in assay [11]. Nature of the assay: NOD2 signaling inhibitors, analog potency, SAR follow-up, cell-based, set 3 (AID 2799). The format is functional.
The target in assay [12] is T3, Tyrosine-protein phosphatase non-receptor type 22 (Homo sapiens, UniProt Q9Y2R2). The format is functional.
A short description of assay [13]: Luminescence Cell-Based Dose Confirmation HTS to Identify Activators of 5'UTR Stem-Loop Driven Alpha-Synuclein mRNA Translation in H4 Neuroglioblastoma Cells. [Related pubchem assays: 1829 (Project Summary), 1814 (Primary HTS)]. The format is functional.
Another assay has as its system H4. Put plainly: Luminescence Cell-Based Dose Response HTS to Identify Activators of 5'UTR Stem-Loop Driven Prion Protein mRNA Translation in H4 Neuroglioblastoma Cells. [Related pubchem assays: 1829 (Project Summary), 1814 (Primary HTS)]. The assay is classed as functional. The conditions noted are these: Homo sapiens.
A short description of assay [14]: Luminescence Cell-Based Dose Response HTS to Identify Activators of Luciferase Translation or Activity in H4 […] Cells. [Related pubchem assays: 1829 (Project Summary), 1814 (Primary HTS)]. The format is functional.
For assay [15], the target named is T3, Tyrosine-protein phosphatase non-receptor type 22. The assay is classed as functional. The source holds these as a separate data set.
Assay [16] addresses T4, Tyrosine-protein phosphatase non-receptor type 7 (Homo sapiens, UniProt P35236).
T4 sequence (P35236 whole entry): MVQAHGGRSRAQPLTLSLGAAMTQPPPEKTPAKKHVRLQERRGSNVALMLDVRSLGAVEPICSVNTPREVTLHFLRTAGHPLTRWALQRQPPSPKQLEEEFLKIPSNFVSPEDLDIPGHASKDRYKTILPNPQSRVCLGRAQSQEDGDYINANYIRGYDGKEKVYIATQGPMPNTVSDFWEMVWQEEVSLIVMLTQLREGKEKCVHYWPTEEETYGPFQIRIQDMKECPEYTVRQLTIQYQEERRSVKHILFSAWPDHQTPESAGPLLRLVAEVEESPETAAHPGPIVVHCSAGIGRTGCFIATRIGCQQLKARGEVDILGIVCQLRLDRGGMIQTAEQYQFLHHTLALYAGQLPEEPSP
The assay is classed as functional.

Assay [17] has as its target T5, Mu-type opioid receptor (Homo sapiens, UniProt P35372). Nature of the assay: HTS Image-Based Screen for Agonists of the MOR Receptor. [Related pubchem assays (depositor defined):AID1777, AID1785, AID1786, AID2133]. The format is functional.
The target of the next assay is Beta-galactosidase (Escherichia coli, UniProt Q8VNN2). The format is functional.
Assay [18] concerns the target T6, Delta-type opioid receptor (Homo sapiens, UniProt P41143). Put plainly: HTS Image-Based Screen for Agonists of the DOR Receptor. [Related pubchem assays (depositor defined):AID1777, AID1786, AID2133]. The format is functional.
Assay [19] addresses T6, Delta-type opioid receptor. Nature of the assay: HTS Image-Based Screen for Antagonists of the DOR Receptor. [Related pubchem assays (depositor defined):AID1777, AID1785, AID1786, AID2133]. The assay is classed as functional.
The target in assay [20] is T7, Kappa-type opioid receptor (Homo sapiens, UniProt P41145). The assay is classed as functional.
Assay [21] deals with T7, Kappa-type opioid receptor. The assay is classed as functional. This is another data set of the same source.
For assay [22], the target named is T7, Kappa-type opioid receptor. Put plainly: KOR agonist analogs, arrestin-GFP redistribution, SAR follow-up, imaging, image-based, set 3 (AID 488833). The assay is classed as functional.
Assay [23] deals with T7, Kappa-type opioid receptor. Put plainly: SAR analysis of small molecule agonists of the kappa opioid receptor via a luminescent beta-arrestin assay - Set 3. [Related pubchem assays (depositor defined):AID1777, AID1785, AID1786, AID1966, AID2133, AID2136, AID2284, AID2500]. The format is functional.
The target in assay [24] is T6, Delta-type opioid receptor. Nature of the assay: SAR Analysis of Agonists of the DOR Receptor using an Image-Based Assay - Set 3. [Related pubchem assays (depositor defined):AID1777, AID1786]. The assay is classed as functional.
Assay [25] concerns the target T5, Mu-type opioid receptor. Put plainly: SAR Analysis of Agonists of the MOR Receptor using an Image-Based Assay - Set 3. [Related pubchem assays (depositor defined):AID1777, AID1785, AID1786, AID1966, AID2133, AID2136, AID2284, AID2285, AID2352]. The format is functional.
In assay [26] the target is T4, Tyrosine-protein phosphatase non-receptor type 7. Put plainly: HePTP (PTPN7) phosphatase inhibitor potency, SAR follow-up, biochemical, set 2 (AID 449736). The format is functional.
Another assay concerns the target T8, Hexokinase HKDC1 (Homo sapiens, UniProt Q2TB90).
T8 sequence (Q2TB90 whole entry): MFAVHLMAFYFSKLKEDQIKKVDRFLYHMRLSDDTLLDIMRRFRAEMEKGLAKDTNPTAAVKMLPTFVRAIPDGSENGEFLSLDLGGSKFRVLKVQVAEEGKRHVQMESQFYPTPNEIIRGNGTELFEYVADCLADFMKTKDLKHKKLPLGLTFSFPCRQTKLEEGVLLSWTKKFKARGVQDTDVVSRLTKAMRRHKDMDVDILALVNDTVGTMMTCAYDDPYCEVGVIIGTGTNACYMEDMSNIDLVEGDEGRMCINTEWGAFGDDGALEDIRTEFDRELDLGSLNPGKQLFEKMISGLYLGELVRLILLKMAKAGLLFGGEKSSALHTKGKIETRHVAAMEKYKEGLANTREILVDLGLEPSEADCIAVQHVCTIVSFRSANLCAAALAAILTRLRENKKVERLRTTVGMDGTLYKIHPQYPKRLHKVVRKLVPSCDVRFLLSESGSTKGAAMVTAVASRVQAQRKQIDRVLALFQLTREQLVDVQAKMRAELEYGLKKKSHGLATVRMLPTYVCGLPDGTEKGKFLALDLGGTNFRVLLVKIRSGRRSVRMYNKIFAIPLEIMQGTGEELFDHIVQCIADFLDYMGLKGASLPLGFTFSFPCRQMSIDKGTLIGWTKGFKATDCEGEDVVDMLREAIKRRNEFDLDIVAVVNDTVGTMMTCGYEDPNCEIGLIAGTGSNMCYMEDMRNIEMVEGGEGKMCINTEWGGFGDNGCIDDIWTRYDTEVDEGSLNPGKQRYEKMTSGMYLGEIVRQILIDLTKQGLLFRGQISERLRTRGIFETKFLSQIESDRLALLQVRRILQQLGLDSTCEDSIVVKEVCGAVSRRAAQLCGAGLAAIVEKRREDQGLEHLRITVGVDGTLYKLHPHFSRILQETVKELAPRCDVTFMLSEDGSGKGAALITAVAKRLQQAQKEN
Put plainly: HKDC1 hexokinase activators, dose response, biochemical, W721R variant (AID 504730). The assay is classed as functional.

The target of the next assay is T9, Hexokinase-1 (Homo sapiens, UniProt P19367).
T9 sequence (P19367 whole entry): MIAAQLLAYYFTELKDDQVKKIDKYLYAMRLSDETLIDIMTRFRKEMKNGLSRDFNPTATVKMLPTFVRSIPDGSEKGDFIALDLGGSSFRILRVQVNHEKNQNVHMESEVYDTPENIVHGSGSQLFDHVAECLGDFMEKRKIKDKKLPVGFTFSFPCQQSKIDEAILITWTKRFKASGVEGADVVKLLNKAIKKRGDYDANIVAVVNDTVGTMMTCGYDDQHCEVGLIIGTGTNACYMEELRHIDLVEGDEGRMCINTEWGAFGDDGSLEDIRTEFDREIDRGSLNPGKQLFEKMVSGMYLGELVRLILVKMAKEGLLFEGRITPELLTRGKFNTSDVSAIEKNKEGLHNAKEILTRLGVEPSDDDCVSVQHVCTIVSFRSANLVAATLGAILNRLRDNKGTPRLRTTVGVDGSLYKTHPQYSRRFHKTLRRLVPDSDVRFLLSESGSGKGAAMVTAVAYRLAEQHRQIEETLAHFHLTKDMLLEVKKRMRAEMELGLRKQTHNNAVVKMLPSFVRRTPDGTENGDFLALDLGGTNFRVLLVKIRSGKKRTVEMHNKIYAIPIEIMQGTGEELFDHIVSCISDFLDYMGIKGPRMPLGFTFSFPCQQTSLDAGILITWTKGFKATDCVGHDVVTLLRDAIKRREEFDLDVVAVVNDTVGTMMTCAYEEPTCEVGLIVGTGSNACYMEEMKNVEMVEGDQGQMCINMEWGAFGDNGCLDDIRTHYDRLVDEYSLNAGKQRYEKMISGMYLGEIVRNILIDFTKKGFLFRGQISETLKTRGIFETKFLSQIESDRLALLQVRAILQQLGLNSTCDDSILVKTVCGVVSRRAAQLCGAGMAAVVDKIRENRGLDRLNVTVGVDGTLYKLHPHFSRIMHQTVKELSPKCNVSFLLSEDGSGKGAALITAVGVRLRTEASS
Put plainly: hexokinase 1 activators, dose response, selectivity assay for HKDC1 activator project, biochemical (AID 504762). The assay is classed as functional.

The structures appear in SMILES notation. Calls of active or inactive are those of the source.

T6 sequence (P41143 whole entry): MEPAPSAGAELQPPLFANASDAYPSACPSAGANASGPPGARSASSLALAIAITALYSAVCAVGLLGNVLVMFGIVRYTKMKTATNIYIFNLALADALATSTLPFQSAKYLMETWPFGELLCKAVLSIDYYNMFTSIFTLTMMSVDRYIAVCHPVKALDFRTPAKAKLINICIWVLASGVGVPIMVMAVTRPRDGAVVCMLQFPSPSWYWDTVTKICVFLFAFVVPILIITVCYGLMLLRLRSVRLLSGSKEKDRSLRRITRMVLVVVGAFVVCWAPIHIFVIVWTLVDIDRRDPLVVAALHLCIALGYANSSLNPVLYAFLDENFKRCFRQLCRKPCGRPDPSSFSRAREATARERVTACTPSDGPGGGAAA
T1 sequence (P01375 whole entry): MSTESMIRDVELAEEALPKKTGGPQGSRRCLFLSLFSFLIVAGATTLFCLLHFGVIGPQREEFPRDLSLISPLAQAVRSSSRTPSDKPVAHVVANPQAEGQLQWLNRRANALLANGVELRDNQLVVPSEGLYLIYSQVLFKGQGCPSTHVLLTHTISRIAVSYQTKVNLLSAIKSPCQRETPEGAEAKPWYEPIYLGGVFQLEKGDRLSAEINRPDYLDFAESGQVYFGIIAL
T2 sequence (Q9HC29 whole entry, the tested form may be a part): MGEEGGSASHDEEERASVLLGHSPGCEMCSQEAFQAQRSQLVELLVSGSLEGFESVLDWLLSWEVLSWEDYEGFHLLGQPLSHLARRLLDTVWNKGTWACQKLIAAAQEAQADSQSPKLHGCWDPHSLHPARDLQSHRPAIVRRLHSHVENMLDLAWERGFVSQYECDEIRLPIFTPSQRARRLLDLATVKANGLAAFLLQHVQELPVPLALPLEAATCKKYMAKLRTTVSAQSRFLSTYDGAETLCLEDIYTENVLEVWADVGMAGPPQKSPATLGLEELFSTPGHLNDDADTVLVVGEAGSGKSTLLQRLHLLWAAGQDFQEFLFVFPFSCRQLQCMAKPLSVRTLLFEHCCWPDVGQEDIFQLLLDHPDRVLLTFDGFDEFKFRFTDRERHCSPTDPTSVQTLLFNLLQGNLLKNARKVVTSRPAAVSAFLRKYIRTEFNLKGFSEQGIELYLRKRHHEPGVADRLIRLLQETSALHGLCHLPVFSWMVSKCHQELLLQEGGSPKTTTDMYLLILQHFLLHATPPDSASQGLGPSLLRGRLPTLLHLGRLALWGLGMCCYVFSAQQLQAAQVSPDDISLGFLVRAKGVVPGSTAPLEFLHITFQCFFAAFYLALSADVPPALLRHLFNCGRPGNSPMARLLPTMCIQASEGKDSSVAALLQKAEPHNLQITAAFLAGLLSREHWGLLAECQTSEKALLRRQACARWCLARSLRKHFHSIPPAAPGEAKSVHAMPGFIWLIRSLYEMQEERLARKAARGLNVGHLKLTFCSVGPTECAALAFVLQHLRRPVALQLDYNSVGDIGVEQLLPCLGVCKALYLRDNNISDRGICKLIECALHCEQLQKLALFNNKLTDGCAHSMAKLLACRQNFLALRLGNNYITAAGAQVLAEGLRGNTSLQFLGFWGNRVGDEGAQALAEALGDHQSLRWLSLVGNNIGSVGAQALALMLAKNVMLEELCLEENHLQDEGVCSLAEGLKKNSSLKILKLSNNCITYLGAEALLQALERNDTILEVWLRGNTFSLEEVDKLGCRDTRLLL
T7 sequence (P41145 whole entry): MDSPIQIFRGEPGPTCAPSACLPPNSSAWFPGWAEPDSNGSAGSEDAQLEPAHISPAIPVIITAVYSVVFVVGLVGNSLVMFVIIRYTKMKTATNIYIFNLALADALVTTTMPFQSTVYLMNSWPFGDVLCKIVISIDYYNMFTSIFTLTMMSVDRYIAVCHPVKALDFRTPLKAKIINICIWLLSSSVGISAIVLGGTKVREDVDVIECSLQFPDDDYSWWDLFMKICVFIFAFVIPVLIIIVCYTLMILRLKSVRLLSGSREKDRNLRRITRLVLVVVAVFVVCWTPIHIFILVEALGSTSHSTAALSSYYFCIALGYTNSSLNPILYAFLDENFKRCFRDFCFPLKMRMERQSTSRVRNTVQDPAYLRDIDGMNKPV
T5 sequence (P35372 whole entry): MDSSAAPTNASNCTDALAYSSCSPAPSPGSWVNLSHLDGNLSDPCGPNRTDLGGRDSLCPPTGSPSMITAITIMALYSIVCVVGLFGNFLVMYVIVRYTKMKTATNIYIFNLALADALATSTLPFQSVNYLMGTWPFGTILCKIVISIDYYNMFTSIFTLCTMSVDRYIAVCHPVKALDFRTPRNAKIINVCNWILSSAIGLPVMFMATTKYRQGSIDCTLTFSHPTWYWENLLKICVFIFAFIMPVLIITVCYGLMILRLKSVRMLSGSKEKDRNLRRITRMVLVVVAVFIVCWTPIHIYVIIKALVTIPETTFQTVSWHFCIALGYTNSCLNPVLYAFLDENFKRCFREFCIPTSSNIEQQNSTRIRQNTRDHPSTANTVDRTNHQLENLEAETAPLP
T3 sequence (Q9Y2R2 whole entry): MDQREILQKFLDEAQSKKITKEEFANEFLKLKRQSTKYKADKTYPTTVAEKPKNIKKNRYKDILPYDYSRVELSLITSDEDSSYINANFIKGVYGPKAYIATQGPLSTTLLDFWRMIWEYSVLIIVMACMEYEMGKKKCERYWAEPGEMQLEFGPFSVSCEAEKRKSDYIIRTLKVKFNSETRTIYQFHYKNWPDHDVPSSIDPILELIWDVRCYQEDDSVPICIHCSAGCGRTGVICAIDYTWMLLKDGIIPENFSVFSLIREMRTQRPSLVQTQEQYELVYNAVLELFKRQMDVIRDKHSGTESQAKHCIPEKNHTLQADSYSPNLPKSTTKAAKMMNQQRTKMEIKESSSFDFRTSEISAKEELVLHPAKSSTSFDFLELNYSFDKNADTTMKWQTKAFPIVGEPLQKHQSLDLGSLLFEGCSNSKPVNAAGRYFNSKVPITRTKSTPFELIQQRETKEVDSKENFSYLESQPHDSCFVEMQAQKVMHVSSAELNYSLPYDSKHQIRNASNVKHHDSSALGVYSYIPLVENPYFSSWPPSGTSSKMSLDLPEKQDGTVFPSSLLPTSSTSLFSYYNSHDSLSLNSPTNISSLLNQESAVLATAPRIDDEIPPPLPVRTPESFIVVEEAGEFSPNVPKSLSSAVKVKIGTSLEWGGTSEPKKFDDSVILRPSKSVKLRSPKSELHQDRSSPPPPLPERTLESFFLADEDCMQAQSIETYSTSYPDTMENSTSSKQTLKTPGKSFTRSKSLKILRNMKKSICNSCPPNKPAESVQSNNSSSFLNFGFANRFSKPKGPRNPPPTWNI
Beta-galactosidase, sequence (Q8VNN2 whole entry): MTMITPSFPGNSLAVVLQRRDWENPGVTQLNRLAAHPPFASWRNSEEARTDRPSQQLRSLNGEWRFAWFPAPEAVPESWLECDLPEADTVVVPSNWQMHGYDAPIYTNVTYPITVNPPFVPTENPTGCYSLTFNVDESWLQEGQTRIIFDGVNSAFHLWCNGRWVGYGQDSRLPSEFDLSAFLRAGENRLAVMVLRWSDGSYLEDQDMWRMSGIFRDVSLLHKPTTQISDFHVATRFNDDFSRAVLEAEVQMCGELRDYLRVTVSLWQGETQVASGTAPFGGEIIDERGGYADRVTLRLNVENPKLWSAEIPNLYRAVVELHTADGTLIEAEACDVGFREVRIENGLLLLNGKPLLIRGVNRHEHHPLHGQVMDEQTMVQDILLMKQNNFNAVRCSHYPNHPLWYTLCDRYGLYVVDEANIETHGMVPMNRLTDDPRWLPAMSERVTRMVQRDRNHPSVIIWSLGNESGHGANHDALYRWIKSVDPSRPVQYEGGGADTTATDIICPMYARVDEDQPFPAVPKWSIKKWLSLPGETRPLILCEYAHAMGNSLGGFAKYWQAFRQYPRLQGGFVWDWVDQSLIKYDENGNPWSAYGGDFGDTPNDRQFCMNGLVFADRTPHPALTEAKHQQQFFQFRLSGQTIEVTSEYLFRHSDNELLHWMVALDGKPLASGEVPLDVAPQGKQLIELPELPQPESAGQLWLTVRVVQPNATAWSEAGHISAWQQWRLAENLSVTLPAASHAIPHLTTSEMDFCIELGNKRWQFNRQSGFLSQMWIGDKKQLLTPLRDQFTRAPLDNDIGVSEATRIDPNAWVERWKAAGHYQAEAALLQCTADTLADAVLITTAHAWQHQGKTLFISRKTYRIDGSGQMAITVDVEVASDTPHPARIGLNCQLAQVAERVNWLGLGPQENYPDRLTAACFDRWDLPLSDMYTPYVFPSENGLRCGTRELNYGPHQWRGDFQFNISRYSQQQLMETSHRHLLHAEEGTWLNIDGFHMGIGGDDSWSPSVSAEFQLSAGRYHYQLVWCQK

In general, IC50 refers to the concentration needed to halve the response being measured. Regarding `Cc1ccc(S(=O)(=O)n2c(N)nc3ccccc32)cc1`, the IC50 with HEK293 [1], with HEK293 [2], in the assay on HEK293 [3], at Tumor necrosis factor [4], in the assay on HEK293 [5] and on Tumor necrosis factor [6] was > 20 µM (inactive) each time. Further, the IC50 (in the assay on HEK293 [7]; in the assay with HEK293 [8]; in [9]; in assay [10]; in [11]) was > 20 µM (inactive) throughout.
For orientation: EC50 means the concentration needed to bring the measured effect to its halfway point. For the compound `O=C1C2C(C(=O)N1/N=C/c1cccc([N+](=O)[O-])c1)C1C=CC2C12CC2` (stereo not given), the IC50 in assay [12], in assay [15] and in [16] was > 79.4 µM (inactive) in each case. Also, the EC50 in assay [13] is 15.4 µM (active); in the assay with H4, 87.7 µM (active); in assay [14] it was 7.44 µM (active).
With `Cc1nc(-c2ccccn2)[nH]c(=S)c1Cl`, the EC50 at Mu-type opioid receptor [17] is > 32 µM (inactive); on Beta-galactosidase it was > 31.5 µM (inactive); in assay [18], > 32 µM (inactive). For the same compound, the figures for the IC50 in [19], in assay [20] and in assay [21] were > 32 µM (inactive), more than 32 µM and 20.3 µM (inactive), respectively.
Take `FC(F)(F)c1ccc(CSc2nnc(-c3ccccn3)n2Cc2cccs2)cc1`: the EC50 was 621 nM (active) in [22], 1.23 µM (active) in assay [23], > 32 µM (inactive) in assay [24] and > 32 µM (inactive) on Mu-type opioid receptor [25].
With `Cc1ccc(NC(=O)Nc2ccc(S(N)(=O)=O)cc2)cc1`, the IC50 in assay [26] is 47.6 µM (active).
As to `Nc1nc(-c2cccc(Br)c2)cs1`, the EC50 at Hexokinase HKDC1 is 31.8 µM (inactive); on Hexokinase-1 it was 49.3 µM (inactive).
